The subject of one test is hyaluronidase. In words: VEGF-induced hyaluronidase expression (immunoblot). It is filed as cell-based, human. The following applies: 100 nM HMW-HA, 100 nM VEGF. The protocol:
Determination of the role of HMW-HA/CD44 interactions in regulating hyaluronidase activity and angiogenesis in vitro. Human pulmonary microvascular EC (HPMVEC) (Cambrex), grown in EBM-2 complete medium (Cambrex) at 37° C. in a humidified atmosphere of 5% CO2, 95% air, with passages 6-10 used for experimentation was treated with or without 100 nM HMW-HA and/or 100 nM VEGF in the presence or absence of CD44 isoform-specific blocking antibodies (EMD Biosciences), siRNA (scramble, CD44, Hyal-1, Hyal-2, Hyal-3 or Hyal-4) and the potent hyaluronidase inhibitor, L-ascorbic acid 6-hexadecanoate (Botzki et al., 2004) (Sigma). […] Treated EC will either be analyzed for protein expression, hyaluronidase activity or VEGF-induced proliferation, migration or tube formation. […] Cells from the upper and lower chamber were quantitated using the CellTiter96™ MTS assay (Promega, San Luis Obispo, Calif.) and read at 492 nm. % migration was defined as the # of cells in the lower chamber […] the number of cells in both the upper and lower chamber. Each assay was set up in triplicate, repeated at least five times and analyzed statistically by Student's t test (with statistical significance set at P<0.05). […] The in vitro cell proliferation assay was analyzed by measuring increases in cell number using the CellTiter96™ MTS assay (Promega, San Luis Obispo, Calif.) and read at 492 nm. […]
In general terms: In western blotting, separated proteins are transferred to a membrane and probed.

The subject of the next test is Human pulmonary EC. In words: Atomic Force Microscopy of EC morphology and lipid rafts. It is filed as cell-based. As to conditions: 100 nM high MW HA. The protocol:
Atomic Force Microscopy. The protocols/procedures for AFM analysis of 50 to 100 nm pits (CEM, lipid rafts), EC height and force measurements were previously described in detail (Dvorak, 2003, Reich et al., 2001, Henderson et al., 2004, Milhiet et. al., 2004, Miklaszewska, 2004, Lucius, 2003). EC treated with various siRNAs or treated with MβCD with or without 100 nM high MW HA (0, 15, 30, 60 min.) were fixed in 4% glutaraldehyde and analyzed in tapping mode on a DI multimode AFM (Digital Instruments, Santa Barbara, Calif.) using a V-shaped oxide-sharpened silicon nitride cantilever with an optical scanning speed of ˜1.0 Hz to obtain a surface topology map which was quantitated and spatially defined using Metamorph™ software. For live cells, GFP and GFP-caveolin-1 expressing EC were treated with or without 100 nM high MW HA in a DI Bioscope cell chamber (Digital Instruments, Santa Barbara, Calif.) were exposed to tapping mode AFM with concurrent fluorescence scanning and images were obtained using a C5985 chilled CCD camera (Hamamatsu Photonics Systems, Bridgewater, N.J.).

A further test has as its system C1INH. In words: C1INH expression in EC (immunoblot). The format is cell-based, human. The following applies: 100 nM HMW-HA. The protocol: Determination of the role of HMW-HA/HABP2/C1INH interactions in regulating angiogenesis in vitro. Human pulmonary EC (Cambrex), grown in EBM-2 complete medium (Cambrex) at 37° C. in a humidified atmosphere of 5% CO2, 95% air, with passages 6-10 used for experimentation will be treated with or without 100 nM HMW-HA and/or 100 nM VEGF in the presence or absence of HABP2 and/or C1INH overexpression vectors (Origene), exogenous purified recombinant HABP2 polyanion binding domain and/or C1INH (Novus Biologicals) and/or siRNA (scramble, HABP2 or C1INH). For HABP2 protease activity determination, media from HABP2 overexpressing EC (see above) was immunoprecipitated with anti-HABP2 antibody-conjugated Sepharose beads (Sigma). The immunobeads were then extensively washed in 50 mM Borate, pH=8.5 and protease activity was measured using the QuantiCleave™ Protease Assay Kit (Pierce). Briefly, the immunobeads were incubated with succinylated casein for one hour followed by development with TNBSA (2,4,6-trinitrobenzene sulfonic acid) and read at 450 nm.

These results are taken from patent publication US20100249064A1, “METHODS AND COMPOSITIONS FOR TREATING DISEASES AND CONDITIONS INVOLVING HIGHER MOLECULAR WEIGHT HYALURONAN” (University of Chicago, priority 2007, published 2010).

For hyaluronan [HMW-HA], the VEGF-induced hyaluronidase expression result with hyaluronidase is listed as “inhibited VEGF-induced hyaluronidase expression”. In addition, in the test on Human pulmonary EC, the “EC morphological changes (AFM)” value is recorded as “caused dramatic morphological changes including increased thickening of EC junctions” and the “total number of lipid raft-like structures (AFM)” value is listed as “did not change”. Further, the “C1INH expression in EC” value in the test on C1INH was “increased the expression of the endogenous inhibitor of HABP2, C1INH”.
